Assay results reported in the NIST ThermoML archive (doi:10.1021/je030127e).

Experiment: xn = mol fraction of the nth substance listed
Settings: 101.3 kPa, Liquid; for viscosity: Capillary tube (Ostwald / Ubbelohde) method

CCCCN [1-butanamine] + COCCO
Settings | speed of sound, 298.15 K [m/s] | viscosity, 293.15 K [mPa·s] | viscosity, 298.15 K [mPa·s] | viscosity, 303.15 K [mPa·s]
x2 = 0 | 1251.6 | 0.525 | 0.496 | 0.467
x2 = 0.0501 | 1257 | 0.566 | 0.536 | 0.504
x2 = 0.0999 | 1262.3 | 0.613 | 0.578 | 0.544
x2 = 0.1508 | 1267.7 | 0.669 | 0.625 | 0.588
x2 = 0.2001 | 1273.1 | 0.731 | 0.68 | 0.636
x2 = 0.2509 | 1278.4 | 0.801 | 0.743 | 0.691
x2 = 0.3 | 1283.6 | 0.879 | 0.81 | 0.75
x2 = 0.3498 | 1288.8 | 0.964 | 0.886 | 0.815
x2 = 0.4001 | 1294 | 1.053 | 0.966 | 0.885
x2 = 0.4511 | 1299.1 | 1.146 | 1.049 | 0.957
x2 = 0.5001 | 1304 | 1.238 | 1.133 | 1.031
x2 = 0.5496 | 1308.8 | 1.327 | 1.214 | 1.103
x2 = 0.5997 | 1313.5 | 1.412 | 1.29 | 1.17
x2 = 0.6503 | 1318.1 | 1.488 | 1.358 | 1.232
x2 = 0.7 | 1322.4 | 1.552 | 1.415 | 1.286
x2 = 0.7492 | 1326.6 | 1.604 | 1.461 | 1.327
x2 = 0.7999 | 1330.7 | 1.643 | 1.493 | 1.359
x2 = 0.8491 | 1334.5 | 1.671 | 1.516 | 1.379
x2 = 0.8993 | 1338 | 1.686 | 1.525 | 1.389
x2 = 0.95 | 1341.4 | 1.696 | 1.533 | 1.395
